From PubChem BioAssay (NCI)
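GI50 is the concentration that inhibits growth by half. TGI: total growth inhibition.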

What was measured:
Assay in all cases: NCI-60 cell line screen, 384-well format
CAKI-1 renal = tested on: CAKI-1 renal
CCRF-CEM leukemia = tested on: CCRF-CEM leukemia
DU-145 prostate = tested on: DU-145 prostate
HCT-116 colon = tested on: HCT-116 colon
HL-60(TB) leukemia = tested on: HL-60(TB) leukemia
K-562 leukemia = tested on: K-562 leukemia
LOX IMVI melanoma = tested on: LOX IMVI melanoma
MALME-3M melanoma = tested on: MALME-3M melanoma
MDA-MB-468 breast = tested on: MDA-MB-468 breast
MOLT-4 leukemia = tested on: MOLT-4 leukemia
OVCAR-8 ovarian = tested on: OVCAR-8 ovarian
RPMI-8226 leukemia = tested on: RPMI-8226 leukemia
SK-OV-3 ovarian = tested on: SK-OV-3 ovarian
SW-620 colon = tested on: SW-620 colon

With `CN(C)/N=N/c1nc[nH]c1C(N)=O` the GI50 (CAKI-1 renal) was 34.7 µM, the GI50 (CCRF-CEM leukemia) was 45.5 µM and the GI50 (DU-145 prostate) was 83.8 µM. It also gave a GI50 (HCT-116 colon) of 66.3 µM, a GI50 (HL-60(TB) leukemia) of 6.42 µM and a GI50 (K-562 leukemia) of 44.6 µM. It also gave a GI50 (LOX IMVI melanoma) of 29.2 µM, a GI50 (MALME-3M melanoma) of 79.5 µM and a GI50 (MDA-MB-468 breast) of 30.4 µM. It also gave a GI50 (MOLT-4 leukemia) of 6.9 µM, a TGI (MOLT-4 leukemia) of 21.7 µM and a GI50 (OVCAR-8 ovarian) of 69.9 µM. The GI50 (RPMI-8226 leukemia) was 18.3 µM, the GI50 (SK-OV-3 ovarian) was 95.3 µM and the GI50 (SW-620 colon) was 97.4 µM.
